We go through ten compounds from article PMC11191095, “QSAR Reveals Decreased Lipophilicity of Polar Residues Determines the Selectivity of Antimicrobial Peptide Activity” (ACS Omega, 2024).

Molecules are shown by their SMILES. Values after ≈ are worked out from the molar mass of the structure shown. Where a SMILES comes first, the peptide text is derived from it.

Holding throughout (assay): microbe, parasite or virus in culture
One test relates to C. auris TDG 1912. Format: cell-based, Candida auris. The following applies: Candidozyma auris, TDG1912, read-out: Modal MIC (antibiogram). The procedure: (§1) Antimicrobial activity was evaluated against a panel of 18 pathogens consisting of eight Gram-negative strains (E. coli NCTC 12923, E. coli LEC001, Pseudomonas aeruginosa PAO1, P. aeruginosa NCTC 13437, Acinetobacter baumannii ATCC 17978, A. baumannii AYE, Klebsiella pneumoniae M6, K. pneumoniae NCTC 13368), four Gram-positive strains (Staphylococcus aureus ATCC 9144, S. aureus NCTC 13616, S. aureus USA300, S. aureus 1199B) and six fungi (Candida auris TDG 1912, C. albicans NCPF 8018, C. krusei NCPF 3876, C. tropicalis NCPF 8760, and C. parapsilosis NCPF 3209). Pathogens were grown in noncation adjusted Mueller Hinton broth (MHB, for bacteria) or Roswell Park Memorial Institute (RPMI 1640) + 2% glucose (for fungi) at 37 °C with 180 rpm shaking and maintained on solid media (tryptic soy agar for bacteria and Sabouraud dextrose agar for fungi). For an antibiogram, see Suppl.
(§2) The 46 peptides were serially diluted (128 to 2 μg/mL) in media down polypropylene 96-well plates. Bacteria or fungi, diluted from an overnight culture to an OD600 of 0.01, were added to the serially diluted peptides at a 1:1 ratio resulting in a starting cell density of ∼5 × 10^5 CFU/mL. Plates were incubated at 37 °C for 20 h, and the optical density was determined spectrophotometrically at 600 nm. Minimum inhibition concentrations (MICs) were determined from a minimum of three biological repeats and are reported in μg/mL as well as μM. […] The MIC50 or MIC90 is defined as the lowest peptide concentration that results in 50% or 90% growth inhibition over a 20 h treatment period, respectively.

In a further test the test system is C. albicans NCPF 3281. The test is classed as cell-based. The settings on record: for MIC: Candida albicans, NCPF3281, read-out: Modal MIC (antibiogram); for Modal MIC50 / Modal MIC90: NCPF 3281, 20 h. The procedure:
as §1, §2

For a further test, the system named is C. glabrata NCPF 8018. The test is classed as cell-based. The following applies: for MIC: Nakaseomyces glabratus, NCPF8018, read-out: Modal MIC (antibiogram); for Modal MIC50 / Modal MIC90: NCPF 8018, 20 h. On the procedure:
as §1, §2

For another test, the system named is C. krusei NCPF 3876. The test is classed as cell-based. The settings on record: for MIC: Pichia kudriavzevii, NCPF3876, read-out: Modal MIC (antibiogram); for Modal MIC50 / Modal MIC90: NCPF 3876, 20 h. On the procedure:
as §1, §2

Test [1] has as its system C. parapsilosis NCPF 3209. The test is classed as cell-based. The following applies: for MIC: Lodderomyces parapsilosis, NCPF3209, read-out: Modal MIC (antibiogram); for Modal MIC50 / Modal MIC90: NCPF 3209, 20 h. The procedure: as §1, §2
The test system of a further test is C. tropicalis NCPF 8760. Format: cell-based. The following applies: for MIC: Candida tropicalis, NCPF8760, read-out: Modal MIC (antibiogram); for Modal MIC50 / Modal MIC90: NCPF 8760, 20 h. On the procedure: as §1, §2
The subject of the next test is E. coli NCTC 12923. Format: cell-based, Escherichia coli. The settings on record: NCTC 12923, 20 h. On the procedure:
as §1, §2

A further test concerns A. baumannii ATCC 17978. Format: cell-based, Acinetobacter baumannii. The settings on record: ATCC 17978, 20 h. On the procedure:
as §1, §2

A further test concerns A. baumannii AYE. Format: cell-based, Acinetobacter baumannii. The settings on record: AYE, 20 h. On the procedure: as §1, §2
Test [2] has as its system S. aureus (MSSA) ATCC 9144. Format: cell-based, Staphylococcus aureus. The following applies: ATCC 9144, 20 h. On the procedure: as §1, §2

Take `Cc1ccc(Oc2ccccc2-c2csc(N=C3NCCCN3)n2)c(C)c1` [Abafungin, reference compound]: the MIC in the test on C. auris TDG 1912 was greater than 128 µg/mL; in the test on C. albicans NCPF 3281, greater than 128 µg/mL; in the test on C. glabrata NCPF 8018, greater than 128 µg/mL; in the test on C. krusei NCPF 3876 it was 0.25 µg/mL (≈ 0.661 µM); in test [1] it was 0.25 to 0.5 µg/mL (≈ 0.661 to 1.32 µM); in the test on C. tropicalis NCPF 8760, greater than 128 µg/mL.
For `C[C@@H]1[C@H](O)[C@@H](C)/C=C/C=C/C=C/C=C/C=C/C=C/C=C/[C@H](O[C@@H]2O[C@H](C)[C@@H](O)[C@H](N)[C@@H]2O)C[C@@H]2O[C@](O)(C[C@@H](O)C[C@@H](O)[C@H](O)CC[C@@H](O)C[C@@H](O)CC(=O)O[C@H]1C)C[C@H](O)[C@H]2C(=O)O` [Amphotericin B, reference compound], the MIC in the test on C. auris TDG 1912 was 0.03 µg/mL (≈ 0.0325 µM); in the test on C. albicans NCPF 3281, 0.015 µg/mL (≈ 0.0162 µM); in the test on C. glabrata NCPF 8018 it was 0.03 µg/mL (≈ 0.0325 µM); with C. krusei NCPF 3876, 0.06 µg/mL (≈ 0.0649 µM); in test [1], no more than 0.007 µg/mL; in the test on C. tropicalis NCPF 8760 it was 0.03 µg/mL (≈ 0.0325 µM).
As to `CC(C)C[C@H](NC(=O)CNC(=O)[C@H](Cc1ccccc1)NC(=O)[C@H](CCCCN)NC(=O)[C@H](Cc1ccccc1)NC(=O)[C@H](C)NC(=O)[C@@H](N)CCCCN)C(=O)N[C@@H](CCCCN)C(=O)N[C@H](C(=O)N[C@H](C(N)=O)C(C)C)[C@@H](C)O` [CPF-MW-10a] (H-KAFKFGLKTV-NH2), the “Modal MIC50” value (with C. albicans NCPF 3281; with C. glabrata NCPF 8018; in the test with C. krusei NCPF 3876; in test [1]; in the test on C. tropicalis NCPF 8760) was greater than 110.8 µM in each case. Also, the “Modal MIC90” value (in the test with C. albicans NCPF 3281; in the test with C. glabrata NCPF 8018; with C. krusei NCPF 3876; in [1]; in the test on C. tropicalis NCPF 8760) was greater than 110.8 µM throughout.
`CC(C)C[C@H](NC(=O)CNC(=O)[C@H](Cc1ccccc1)NC(=O)[C@H](CCCCN)NC(=O)[C@H](Cc1ccccc1)NC(=O)[C@H](C)NC(=O)[C@@H](N)CCCCN)C(=O)N[C@@H](CCCCN)C(=O)N[C@H](C(=O)N[C@H](C(=O)NCC(=O)N[C@@H](CCCCN)C(N)=O)C(C)C)[C@@H](C)O` [CPF-MW-12a] (H-KAFKFGLKTVGK-NH2): the “Modal MIC50” value (with C. albicans NCPF 3281; in the test on C. glabrata NCPF 8018; with C. krusei NCPF 3876; in test [1]; in the test on C. tropicalis NCPF 8760) was greater than 95.5 µM in each case. The “Modal MIC90” value (in the test on C. albicans NCPF 3281; in the test on C. glabrata NCPF 8018; in the test on C. krusei NCPF 3876; in test [1]; in the test with C. tropicalis NCPF 8760) was greater than 95.5 µM in each case.
For the compound `CC[C@H](C)[C@H](NC(=O)[C@H](CCCCN)NC(=O)[C@H](CC(C)C)NC(=O)[C@H](C)NC(=O)[C@H](C)NC(=O)[C@H](CCCCN)NC(=O)[C@H](CC(C)C)NC(=O)[C@H](C)NC(=O)[C@H](CCCCN)NC(=O)CN)C(=O)NCC(=O)N[C@@H](C)C(=O)N[C@@H](CC(N)=O)C(=O)N[C@H](C(=O)N[C@@H](CC(C)C)C(=O)NCC(=O)NCC(=O)N[C@@H](C)C(=O)N1CCC[C@H]1C(=O)N[C@@H](CCC(N)=O)C(N)=O)C(C)C` [CPF-P3-20a] (H-GKALKAALKIGANVLGGAPQ-NH2), the “Modal MIC” value in the test with E. coli NCTC 12923, in the test with A. baumannii ATCC 17978 and with A. baumannii AYE was 65.7 µM in each case. For the same compound, the “Modal MIC50” value (in the test on C. albicans NCPF 3281; in the test on C. glabrata NCPF 8018; in the test with C. krusei NCPF 3876; in test [1]; with C. tropicalis NCPF 8760) was greater than 65.7 µM in each case. Further, the “Modal MIC90” value (in the test on C. albicans NCPF 3281; with C. glabrata NCPF 8018; with C. krusei NCPF 3876; in [1]; in the test with C. tropicalis NCPF 8760) was greater than 65.7 µM in each case.
As for `CC[C@H](C)C[C@H](C)CCCCCCCCC(=O)N[C@H]1C[C@@H](O)[C@@H](NCCN)NC(=O)[C@@H]2[C@@H](O)CCN2C(=O)[C@H]([C@H](O)CCN)NC(=O)[C@H]([C@H](O)[C@@H](O)c2ccc(O)cc2)NC(=O)[C@@H]2C[C@@H](O)CN2C(=O)[C@H]([C@@H](C)O)NC1=O` [Caspofungin, reference compound], the MIC was 0.03 µg/mL (≈ 0.0274 µM) in the test on C. auris TDG 1912; no more than 0.007 µg/mL in the test on C. albicans NCPF 3281; no more than 0.007 µg/mL in the test with C. glabrata NCPF 8018; no more than 0.007 µg/mL in the test with C. krusei NCPF 3876; 0.125 µg/mL (≈ 0.114 µM) in test [1]; no more than 0.007 µg/mL in the test on C. tropicalis NCPF 8760.
As for `OC(Cn1cncn1)(Cn1cncn1)c1ccc(F)cc1F` [Fluconazole, reference compound], the MIC in the test on C. auris TDG 1912 is greater than 128 µg/mL; in the test on C. albicans NCPF 3281, 0.06 to 0.125 µg/mL (≈ 0.196 to 0.408 µM); in the test with C. glabrata NCPF 8018 it was 4 µg/mL (≈ 13.1 µM); in the test with C. krusei NCPF 3876, 8 µg/mL (≈ 26.1 µM); in test [1], 0.25 µg/mL (≈ 0.816 µM); in the test on C. tropicalis NCPF 8760, 16 µg/mL (≈ 52.2 µM).
Regarding `C[C@@H](c1ncncc1F)[C@](O)(Cn1cncn1)c1ccc(F)cc1F` [Voriconazole, reference compound], the MIC was 1 µg/mL (≈ 2.86 µM) in the test on C. auris TDG 1912; no more than 0.007 µg/mL in the test on C. albicans NCPF 3281; 0.125 µg/mL (≈ 0.358 µM) with C. glabrata NCPF 8018; 0.06 µg/mL (≈ 0.172 µM) with C. krusei NCPF 3876; no more than 0.007 µg/mL in [1]; 0.5 µg/mL (≈ 1.43 µM) in the test on C. tropicalis NCPF 8760.
On to `CC[C@H](C)[C@H](NC(=O)CNC(=O)[C@H](CCCCN)NC(=O)[C@@H](N)Cc1c[nH]c2ccccc12)C(=O)N[C@@H](CCCNC(=N)N)C(=O)NCC(=O)N[C@@H](Cc1ccc(O)cc1)C(=O)N[C@@H](CCCCN)C(=O)NCC(=O)NCC(=O)N[C@@H](Cc1ccc(O)cc1)C(=O)N[C@@H](CCCCN)C(=O)NCC(=O)N[C@@H](C)C(=O)N[C@@H](Cc1ccccc1)C(=O)N[C@@H](CCCCN)C(=O)N[C@@H](CCC(N)=O)C(=O)N[C@H](C(=O)N[C@@H](CCCCN)C(=O)N[C@@H](Cc1ccc(O)cc1)C(N)=O)[C@@H](C)O` [W(Os-C)a] (H-WKGIRGYKGGYKGAFKQTKY-NH2), for which the “Modal MIC” value amounted to 27.2 µM in the test on A. baumannii ATCC 17978, 13.6 µM in the test with A. baumannii AYE and 54.4 µM in test [2]. In addition, the “Modal MIC50” value (with C. albicans NCPF 3281; in the test with C. glabrata NCPF 8018; in the test with C. krusei NCPF 3876; in [1]; with C. tropicalis NCPF 8760) was greater than 54.4 µM in each case. Moreover, the “Modal MIC90” value (in the test with C. albicans NCPF 3281; with C. glabrata NCPF 8018; in the test with C. krusei NCPF 3876; in [1]; with C. tropicalis NCPF 8760) was greater than 54.4 µM in each case.
On to `CC[C@H](C)[C@H](NC(=O)[C@H](CCCCN)NC(=O)CNC(=O)[C@@H](N)CC(C)C)C(=O)N[C@@H](C)C(=O)N[C@@H](CCCCN)C(=O)N[C@H](C(=O)NCC(=O)N[C@@H](CC(C)C)C(=O)N[C@@H](CCCCN)C(N)=O)C(C)C` [XPF10a] (H-LGKIAKVGLK-NH2), for which the “Modal MIC50” value (in the test with C. albicans NCPF 3281; in the test on C. glabrata NCPF 8018; with C. krusei NCPF 3876; in test [1]; with C. tropicalis NCPF 8760) was greater than 120.6 µM each time. Moreover, the “Modal MIC90” value (in the test with C. albicans NCPF 3281; in the test on C. glabrata NCPF 8018; in the test with C. krusei NCPF 3876; in [1]; in the test with C. tropicalis NCPF 8760) was greater than 120.6 µM in each case.
